Reference: patent US4371534A, “N4-Substituted tetrahydro-1,2,4-oxadiazin-5-one derivatives having anticonvulsive activity and pharmaceutical compositions containing them” (Richter Gedeon Vegyeszeti Gyar RT., priority 1980, dated 1983)
Read-outs that look alike come from different tables or passages of the source.

Key:
[1] = system: mice (tonic, extensor spasm of the lower limbs); test: Maximum electroshock (MES), anticonvulsive activity; format: in vivo, CFLP (LATI) mice; details: Mus musculus, po, 1 h; 20 mg/kg p.o., one hour after administration; corneal electrode 20 mA, 0.2 sec; absence of tonic extensor spasm = protection
Experimental: The pharmaceutical activity of the new compounds according to the invention was tested by conventional animal tests. Tests were performed on CFLP (LATI) mice of both sexes weighing 18 to 22 g. each, in groups of 10. Test compounds were suspended in a 5% aqueous "Tween 80" solution and the suspension was administered orally, through a probe. When testing anticonvulsive activity 20 mg./kg. doses, while in the tests concerning neurotoxic activity 80 mg/kg. doses were employed. The induced effect was measured one hour after administration by the following methods: (a) Maximum electroshock (MES): According to the method of E. A. Swinyard et al. [J. Pharmacol. 106, 319 (1952)] test animals were shocked by a corneal electrode (20 mA, 0.2 sec.). On the stimulation 100% of the control animals reacted by a tonic, extensor spasm of the lower limbs. Absence of this phenomena was considered a protection due to the treatment.

[2] = system: mice (pentetrazole-induced clonic and tonic, extensor spasm); test: Inhibition of spasm induced by pentetrazole (PTT); format: in vivo, CFLP (LATI) mice; details: Mus musculus, po, 1 h, 20 mg/kg p.o., 125 mg/kg pentetrazole s.c., one hour
Experimental: The pharmaceutical activity of the new compounds according to the invention was tested by conventional animal tests. Tests were performed on CFLP (LATI) mice of both sexes weighing 18 to 22 g. each, in groups of 10. Test compounds were suspended in a 5% aqueous "Tween 80" solution and the suspension was administered orally, through a probe. When testing anticonvulsive activity 20 mg./kg. doses, while in the tests concerning neurotoxic activity 80 mg/kg. doses were employed. The induced effect was measured one hour after administration by the following methods: (b) inhibition of spasm induced by pentetrazole (PTT) According to the method of Cr. N. Everett and R. K. Richards [J. Pharmacol. Exp. Therap. 81, 402 (1944)] 125 mg./kg. of pentatrazole (pentamethylene tetrazole) were administrated to the animals subcutaneously. One hour after administration the animals were observed. Absence of the clonic spasm (Kl) and the tonic, extensor spasm of lower limbs (TE) was considered a protection due to the administration of test compounds.

[3] = system: mice (muscle coordination); test: Neurotoxic activity: muscle coordination (RR) on rotating rod; format: in vivo, CFLP (LATI) mice; details: 80 mg/kg p.o., one hour after administration; animals falling from rotating rod within 120 seconds, percentage of control animals
Experimental: (§1) The pharmaceutical activity of the new compounds according to the invention was tested by conventional animal tests. Tests were performed on CFLP (LATI) mice of both sexes weighing 18 to 22 g. each, in groups of 10. Test compounds were suspended in a 5% aqueous "Tween 80" solution and the suspension was administered orally, through a probe. When testing anticonvulsive activity 20 mg./kg. doses, while in the tests concerning neurotoxic activity 80 mg/kg. doses were employed. The induced effect was measured one hour after administration by the following methods:
Muscle coordination (RR) on mice
Change of the coordinated muscular movement was tested according to W. J. Kinnard and C. F. Carr [Brit. J. Pharmacol, 121, 354 (1957)], on a rotating rod (diameter: 20 mm., frequency: 12/min.). Normal trained animals are able to remain on the rotating rod for about 120 seconds.

mice = test: Acute toxicity (LD50); format: in vivo; details: p.o., single doses, evaluation after 14 days, probit analysis
Experimental: as §1
Toxicity of the compounds was examined by administration of various single doses. Evaluation was made 14 days after administration. The LD50 -values were calculated on the basis of the number of animals that died in 14 days by probite analysis, by means of a TPA/101 computer.

[4] = absence of clonic spasm, read-out: PTT Cl
[5] = absence of tonic, extensor spasm of lower limbs, read-out: PTT TE

SMILES	responders at 20 mg/kg [1] [%]	responders at 20 mg/kg [2, 4] [%]	responders at 20 mg/kg [2, 5] [%]	RR (muscle incoordination) [3] [%]	LD50 (mice) [mg/kg]
CC(=O)N1OCC(=O)N(CCl)C1c1ccccc1 (centres unmarked) [Example 7, 2-Acetyl-3-phenyl-4-chloromethyl-tetrahydro-1,2,4-oxadiazin-5-one]	40	0	0	40	–
CC(=O)N1OCC(=O)N(COC(=O)c2ccccc2)C1c1ccccc1 (centres unmarked) [Example 18]	40	0	70	40	–
CCN1C(=O)CON(C(C)=O)C1c1ccccc1 (centres unmarked) [Example 4, 2-Acetyl-3-phenyl-4-ethyl-tetrahydro-1,2,4-oxadiazin-5-one]	0	0	20	20	–
CCCCCCN1C(=O)CON(C(C)=O)C1c1ccccc1 (centres unmarked) [Example 14]	0	0	40	0	–
CCC1(c2ccccc2)NC(=O)N(C)C1=O (centres unmarked) [3-methyl-5-ethyl-5-phenylhydantoine, reference compound]	10	0	50	50	–
CC(=O)OCN1C(=O)CON(C(C)=O)C1c1ccccc1 (centres unmarked) [Example 6, 2-Acetyl-3-phenyl-4-acetoxymethyl-tetrahydro-1,2,4-oxadiazin-5-one]	70	0	60	40	–
O=C1NC(=O)C(c2ccccc2)(c2ccccc2)N1 [diphenylhydantoine, reference compound]	90	0	80	70	279
CC(=O)N1OCC(=O)N(C)C1c1ccccc1 (centres unmarked) [Example 10]	40	0	20	20	–
CC(=O)N1OCC(=O)N(CO)C1c1ccccc1 (centres unmarked) [Example 5, 2-Acetyl-3-phenyl-4-hydroxymethyl-tetrahydro-1,2,4-oxadiazin-5-one]	60	0	40	20	–
COc1cc(C(=O)OCN2C(=O)CON(C(C)=O)C2c2ccccc2)cc(OC)c1OC (centres unmarked) [Example 19]	30	0	0	0	–
